Data reported in BindingDB's records for doi:10.1016/j.bmcl.2018.04.050 (Abbvie, 2018).

Assays:
[1] = Binding affinity to thrombin cleavable N-terminal 6His tagged and 13C-IVLM labeled human KDM4A tandem TUDOR domain (897 to 1011 residues) expressed in Escherichia coli BL21(DE3)-T1R assessed as apparent Kd for H3(1-10)K4me3 peptide at 0.5 mM by ITC method (Rvb = 5.2 +/- 0.3 uM)
[2] = Binding affinity to thrombin cleavable N-terminal 6His tagged and 13C-IVLM labeled human KDM4A tandem TUDOR domain (897 to 1011 residues) expressed in Escherichia coli BL21(DE3)-T1R assessed as apparent Kd for H3(1-10)K4me3 peptide at 2.5 mM by ITC method (Rvb = 5.2 +/- 0.3 uM)
[3] = Binding affinity to thrombin cleavable N-terminal 6His tagged and 13C-IVLM labeled human KDM4A tandem TUDOR domain (897 to 1011 residues) expressed in Escherichia coli BL21(DE3)-T1R assessed as apparent Kd for H3(1-10)K4me3 peptide at 1 mM by ITC method (Rvb = 5.2 +/- 0.3 uM)

CN(C)C[C@H]1C2CCC(c3ccccc3)(C2)[C@H]1O (stereo partly drawn) gave a Kd [1] of 15.5 µM, a Kd [2] of 55.1 µM and a Kd [3] of 22.7 µM.
